The values below come from US9988430B2, “Stable GLP-1 based GLP-1/glucagon receptor co-agonists” (Novo Nordisk A/S, priority 2014, dated 2018).

*1 amine or outer side, *2 acyl side, *3 side chain or, on linkers, in order; H or OH if unused. Where a SMILES comes first, the peptide text is derived from it. Bridges are numbered along the chain shown (N, C = ends). Roman numbers before positions name the chains, in order. Side-chain parts run from the residue outwards. [ ]: non-standard residue; d: D form. The star is where a group is joined. C18 diacid = O=C(O)CCCCCCCCCCCCCCCCC(=O)*; γGlu = O=C(O)[C@H](CCC(=O)[*:2])N[*:1]; Desaminohistidyl = O=C(CCc1c[nH]cn1)*; Ac4c = NC1(C(=O)O)CCC1; AEEA = NCCOCCOCC(=O)O; Aib = CC(C)(N)C(=O)O

One may read the EC50 as the concentration at which the effect is half-maximal.

For one series, the target named is T1, human GLP-1 receptor (Homo sapiens, UniProt P43220).
T1 construct: expressed in transfected cells; host or cells: membranes of BHK cells, parent line BHKTS13, clone FCW467-12A
In words: Assay (I)(a): GLP-1 receptor potency, CRE luciferase reporter gene assay in BHK cells. The following applies: BHK cells expressing human GLP-1 receptor, read-out: EC50 GLP-1R. The format is cell-based. The procedure, abridged: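 BHK cells (clone FCW467-12A/KZ10-1), 5×10EE3/well, exposed 3 h at 37° C to compound at 1×10EE-13 to 1×10EE-6 M final in medium with 2% ovalbumin and 0.2% Pluronic F-68. Luciferase luminescence read; EC50 (pM) from four-parameter fit.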

Series [1] in a line: Assay (V): chemical stability assessment by RP-UPLC. The format is physicochemical. The following applies: 14 days at 37° C. in phosphate buffer (pH 7.3). The procedure, abridged: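 Lyophilized peptide dissolved in 8 mM phosphate pH 8.6, adjusted to pH 7.3, final 333 μM, held 14 days at 5° C and 37° C. Purity is main-peak area % by RP-UPLC with UV detection at 215 nm. Degradation is the 5° C minus 37° C purity difference divided by the 5° C purity.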

T1 sequence (P43220 24-463): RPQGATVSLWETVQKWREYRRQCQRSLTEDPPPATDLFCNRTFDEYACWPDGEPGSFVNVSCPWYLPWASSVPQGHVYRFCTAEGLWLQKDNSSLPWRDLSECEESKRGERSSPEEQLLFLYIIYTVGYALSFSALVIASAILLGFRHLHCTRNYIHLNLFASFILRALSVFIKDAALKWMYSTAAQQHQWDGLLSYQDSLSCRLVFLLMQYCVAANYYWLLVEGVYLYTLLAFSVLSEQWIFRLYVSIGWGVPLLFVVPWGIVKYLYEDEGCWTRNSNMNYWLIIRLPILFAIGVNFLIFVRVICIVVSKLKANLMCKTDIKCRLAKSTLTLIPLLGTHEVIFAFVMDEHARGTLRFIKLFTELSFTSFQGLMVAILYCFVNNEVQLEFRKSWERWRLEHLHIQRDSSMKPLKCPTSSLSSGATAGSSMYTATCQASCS

On to `CC[C@H](C)[C@H](NC(=O)[C@H](Cc1ccccc1)NC(=O)[C@H](CCC(=O)O)NC(=O)[C@H](CCCNC(=N)N)NC(=O)[C@H](C)NC(=O)[C@H](C)NC(=O)[C@H](CCC(N)=O)NC(=O)[C@H](CCC(=O)O)NC(=O)[C@H](CCC(=O)O)NC(=O)[C@H](CC(C)C)NC(=O)[C@H](Cc1ccc(O)cc1)NC(=O)[C@H](CCCCN)NC(=O)[C@H](CO)NC(=O)[C@@H](NC(=O)[C@H](CC(=O)O)NC(=O)[C@H](CO)NC(=O)[C@@H](NC(=O)[C@H](Cc1ccccc1)NC(=O)[C@@H](NC(=O)CNC(=O)[C@H](Cc1c[nH]cn1)NC(=O)C(C)(C)NC(=O)CCc1c[nH]cn1)[C@@H](C)O)[C@@H](C)O)C(C)C)C(=O)N[C@@H](C)C(=O)N[C@@H](Cc1c[nH]c2ccccc12)C(=O)N[C@@H](CC(C)C)C(=O)N[C@@H](CC(C)C)C(=O)N[C@@H](CCCCNC(=O)COCCOCCNC(=O)COCCOCCNC(=O)CC[C@H](NC(=O)CCCCCCCCCCCCCCCCC(=O)O)C(=O)O)C(=O)N[C@H](C(N)=O)[C@@H](C)O` [Example 12, N^ε34-[2-[2-[2-[[2-[2-[2-[[(4S)-4-carboxy-4-(17-carboxyheptadecanoylamino)butanoyl]amino]ethoxy]ethoxy]acetyl]amino]ethoxy]ethoxy]acetyl]-[Imp7,Aib8,His9,Lys18,Glu22,Arg26,Leu33,Thr35]-GLP-1-(7-35)-peptide amide] (Desaminohistidyl-[Aib]HGTFTSDVSKYLEEQAAREFIAWLLK([AEEA-AEEA-γGlu-C18 diacid])T-NH2), for which the EC50 on human GLP-1 receptor was 6 pM. For the same compound, the “Chemical stability: Chemical degradation over 14 days at 37° C.” value (“Chemical stability … over 14 days at 37° C.” below) in series [1] worked out at 4.4%.

For the compound `CC[C@H](C)[C@H](NC(=O)[C@H](Cc1ccccc1)NC(=O)[C@H](CCC(=O)O)NC(=O)[C@H](CCCNC(=N)N)NC(=O)[C@H](C)NC(=O)[C@H](C)NC(=O)[C@H](CCC(N)=O)NC(=O)[C@H](CCC(=O)O)NC(=O)[C@H](CCC(=O)O)NC(=O)[C@H](CC(C)C)NC(=O)[C@H](Cc1ccc(O)cc1)NC(=O)[C@H](CCCNC(=N)N)NC(=O)[C@H](CO)NC(=O)[C@@H](NC(=O)[C@H](CC(=O)O)NC(=O)[C@H](CO)NC(=O)[C@@H](NC(=O)[C@H](Cc1ccccc1)NC(=O)[C@@H](NC(=O)CNC(=O)[C@H](Cc1c[nH]cn1)NC(=O)C(C)(C)NC(=O)CCc1c[nH]cn1)[C@@H](C)O)[C@@H](C)O)C(C)C)C(=O)N[C@@H](C)C(=O)N[C@@H](Cc1c[nH]c2ccccc12)C(=O)N[C@@H](CC(C)C)C(=O)N[C@@H](CC(C)C)C(=O)N[C@@H](CCCCNC(=O)CNC(=O)[C@H](CO)NC(=O)[C@H](CCC(=O)O)NC(=O)CNC(=O)[C@H](CO)NC(=O)CC[C@H](NC(=O)CC[C@H](NC(=O)CCCCCCCCCCCCCCCCC(=O)O)C(=O)O)C(=O)O)C(=O)N[C@H](C(N)=O)[C@@H](C)O` [Example 7, N^ε34-[2-[[(2S)-2-[[(2S)-4-carboxy-2-[[2-[[(2S)-2-[[(4S)-4-carboxy-4-[[(4S)-4-carboxy-4-(17-carboxyheptadecanoylamino)butanoyl]amino]butanoyl]amino]-3-hydroxypropanoyl]amino]acetyl]amino]butanoyl]amino]-3-hydroxypropanoyl]amino]acetyl]-[Imp7,Aib8,His9,Arg18,Glu22,Arg26,Leu33,Thr35]-GLP-1-(7-35)-peptide amide] (I: Desaminohistidyl-[Aib]HGTFTSDVSRYLEEQAAREFIAWLLKT-NH2 / II: {C18 diacid-γGlu-γGlu}-SGESG; amide I:27-II:C), the EC50 at human GLP-1 receptor amounted to 6 pM. Also, in series [1], the “Chemical stability … over 14 days at 37° C.” value is listed as 0.0%.

Turning to `CC[C@H](C)[C@H](NC(=O)[C@H](Cc1ccccc1)NC(=O)[C@H](CCC(=O)O)NC(=O)[C@H](CCCNC(=N)N)NC(=O)[C@H](C)NC(=O)[C@H](C)NC(=O)[C@H](CCCNC(=N)N)NC(=O)CNC(=O)[C@H](CCC(=O)O)NC(=O)[C@H](CC(C)C)NC(=O)[C@H](Cc1ccc(O)cc1)NC(=O)[C@H](CCCCN)NC(=O)[C@H](CO)NC(=O)[C@@H](NC(=O)[C@H](CC(=O)O)NC(=O)[C@H](CO)NC(=O)[C@@H](NC(=O)[C@H](Cc1ccccc1)NC(=O)[C@@H](NC(=O)CNC(=O)[C@H](Cc1c[nH]cn1)NC(=O)[C@H](C)NC(=O)CCc1c[nH]cn1)[C@@H](C)O)[C@@H](C)O)C(C)C)C(=O)N[C@@H](C)C(=O)N[C@@H](Cc1c[nH]c2ccccc12)C(=O)N[C@@H](CC(C)C)C(=O)N[C@@H](CC(C)C)C(=O)N[C@@H](CCCCNC(=O)COCCOCCNC(=O)COCCOCCNC(=O)CC[C@H](NC(=O)CC[C@H](NC(=O)CC[C@H](NC(=O)CCCCCCCCCCCCCCCCC(=O)O)C(=O)O)C(=O)O)C(=O)O)C(=O)N[C@H](C(N)=O)[C@@H](C)O` [Example 10, N^ε34-[2-[2-[2-[[2-[2-[2-[[(4S)-4-carboxy-4-[[(4S)-4-carboxy-4-[[(4S)-4-carboxy-4-(17-carboxyheptadecanoylamino)butanoyl]amino]butanoyl]amino]butanoyl]amino]ethoxy]ethoxy]acetyl]amino]ethoxy]ethoxy]acetyl]-[Imp7,His9,Lys18,Arg23,Arg26,Leu33,Thr35]-GLP-1-(7-35)-peptide amide] (Desaminohistidyl-AHGTFTSDVSKYLEGRAAREFIAWLLK([AEEA-AEEA-γGlu-γGlu-γGlu-C18 diacid])T-NH2), the EC50 on human GLP-1 receptor worked out at 8 pM. Besides, the “Chemical stability … over 14 days at 37° C.” value in series [1] came out at 2.0%.

As for `CC[C@H](C)[C@H](NC(=O)[C@H](Cc1ccccc1)NC(=O)[C@H](CCC(=O)O)NC(=O)[C@H](CCCNC(=N)N)NC(=O)[C@H](C)NC(=O)[C@H](C)NC(=O)[C@H](CCC(N)=O)NC(=O)[C@H](CCC(=O)O)NC(=O)[C@H](CCC(=O)O)NC(=O)[C@H](CC(C)C)NC(=O)[C@H](Cc1ccc(O)cc1)NC(=O)[C@H](CCCCN)NC(=O)[C@H](CO)NC(=O)[C@@H](NC(=O)[C@H](CC(=O)O)NC(=O)[C@H](CO)NC(=O)[C@@H](NC(=O)[C@H](Cc1ccccc1)NC(=O)[C@@H](NC(=O)CNC(=O)[C@H](Cc1c[nH]cn1)NC(=O)C(C)(C)NC(=O)CCc1c[nH]cn1)[C@@H](C)O)[C@@H](C)O)C(C)C)C(=O)N[C@@H](C)C(=O)N[C@@H](Cc1c[nH]c2ccccc12)C(=O)N[C@@H](CC(C)C)C(=O)N[C@@H](CC(C)C)C(=O)N[C@@H](CCCCNC(=O)CC[C@H](NC(=O)CC[C@H](NC(=O)CC[C@H](NC(=O)CC[C@H](NC(=O)CCCCCCCCCCCCCCCCC(=O)O)C(=O)O)C(=O)O)C(=O)O)C(=O)O)C(=O)N[C@H](C(N)=O)[C@@H](C)O` [Example 6, N^ε34-[(4S)-4-carboxy-4-[[(4S)-4-carboxy-4-[[(4S)-4-carboxy-4-[[(4S)-4-carboxy-4-(17-carboxyheptadecanoylamino)butanoyl]amino]butanoyl]amino]butanoyl]amino]butanoyl]-[Imp7,Aib8,His9,Lys18,Glu22,Arg26,Leu33,Thr35]-GLP-1-(7-35)-peptide amide] (Desaminohistidyl-[Aib]HGTFTSDVSKYLEEQAAREFIAWLLK([γGlu-γGlu-γGlu-γGlu-C18 diacid])T-NH2), on human GLP-1 receptor, the EC50 is 7 pM. The “Chemical stability … over 14 days at 37° C.” value in series [1] amounted to 0.1%.

As for `CC[C@H](C)[C@H](NC(=O)[C@H](Cc1ccccc1)NC(=O)[C@H](CCC(=O)O)NC(=O)[C@H](CCCNC(=N)N)NC(=O)[C@H](C)NC(=O)[C@H](C)NC(=O)[C@H](CCC(N)=O)NC(=O)[C@H](CCC(=O)O)NC(=O)[C@H](CCC(=O)O)NC(=O)[C@H](CC(C)C)NC(=O)[C@H](Cc1ccc(O)cc1)NC(=O)[C@H](CCCCN)NC(=O)[C@H](CO)NC(=O)[C@@H](NC(=O)[C@H](CC(=O)O)NC(=O)[C@H](CO)NC(=O)[C@@H](NC(=O)[C@H](Cc1ccccc1)NC(=O)[C@@H](NC(=O)CNC(=O)[C@H](Cc1c[nH]cn1)NC(=O)C1(NC(=O)CCc2c[nH]cn2)CCC1)[C@@H](C)O)[C@@H](C)O)C(C)C)C(=O)N[C@@H](C)C(=O)N[C@@H](Cc1c[nH]c2ccccc12)C(=O)N[C@@H](CC(C)C)C(=O)N[C@@H](CC(C)C)C(=O)N[C@@H](CCCCNC(=O)CNC(=O)[C@H](CO)NC(=O)[C@H](CCC(=O)O)NC(=O)CNC(=O)[C@H](CO)NC(=O)CC[C@H](NC(=O)CC[C@H](NC(=O)CCCCCCCCCCCCCCCCC(=O)O)C(=O)O)C(=O)O)C(=O)N[C@H](C(N)=O)[C@@H](C)O` [Example 9, N^ε34-[2-[[(2S)-2-[[(2S)-4-carboxy-2-[[2-[[(2S)-2-[[(4S)-4-carboxy-4-[[(4S)-4-carboxy-4-(17-carboxyheptadecanoylamino)butanoyl]amino]butanoyl]amino]-3-hydroxypropanoyl]amino]acetyl]amino]butanoyl]amino]-3-hydroxypropanoyl]amino]acetyl]-[Imp7,Acb8,His9,Lys18,Glu22,Arg26,Leu33,Thr35]-GLP-1-(7-35)-peptide amide] (I: Desaminohistidyl-[Ac4c]HGTFTSDVSKYLEEQAAREFIAWLLKT-NH2 / II: {C18 diacid-γGlu-γGlu}-SGESG; amide I:27-II:C), on human GLP-1 receptor, the EC50 was found to be 5 pM. Besides, the “Chemical stability … over 14 days at 37° C.” value in series [1] was 0.2%.
